Laboratory results from patent US20210292851A1, “METHOD OF MONITORING EFFECTIVENESS OF IMMUNOTHERAPY OF CANCER PATIENTS” (Roche Sequencing Solutions, Inc., priority 2018, published 2021).

Experiments:
[1] = test system: NSCLC patients; conditions: ≥2L NSCLC patients; previously demonstrated by the study; cited from earlier work
[2] = test system: advanced NSCLC patients; assay: Phase 3 randomized trial, Atezolizumab vs docetaxel in second line advanced NSCLC: progression-free survival by baseline ctDNA mutation metric; format: in vivo, human; conditions: for Events/Total number of patients: PFS events
From the text: In a Phase 3, open-label, multicenter randomized controlled trial, NSCLC patients received either Atezolizumab or docetaxel in a second line setting of advanced NSCLC. Blood plasma samples were obtained from 102 patients prior to start of second line therapy. The AVENIO® ctDNA kit, Surveillance Panel (Roche Sequencing Solutions, Pleasanton, Calif.) was used to assess the number of mutations in patient samples. Cell-free DNA (cfDNA) from the patients was isolated and analyzed according to the manufacturer's instructions of the AVENIO® ctDNA Kit. The metrics assessed included the numbers of variants and maximum allele frequency (MaxAF, the highest allele frequency of a single mutation among all mutations detected within a single sample).
The “number of mutations” metric was assessed on the population level and patients were assessed for progression-free survival (PFS) and overall survival (OS). (FIGS. 1 and 2, Tables 2 and 3) Using median or 75th percentile cut-off, patients treated with Atezolizumab and with number of mutations greater or equal median or 75th percentile have longer progression survival compared to that of chemotherapy, with a HR of 0.67 or 0.49, respectively. Meanwhile, Atezolizumab didn't show more benefit vs chemotherapy in patients with number of mutations fewer than the median or 75th percentile. The HR is 1.12 and 1.05 for <median or <75 percentile, respectively.
The MaxAF detected in the blood samples was also used to assess its relationship with progression free survival and overall survival. Using median cut-off, patients with MaxAF greater than the median have longer progression free survival when treated with Atezolizumab compared to chemotherapy, with a HR of 0.56 (FIG. 3, Table 4). In patients with MaxAF lesser the median, no benefit was observed on treatment with Atezolizumab vs chemotherapy (HR of 1.45).

[3] = test system: NSCLC patients; assay: Same Phase 3 trial with serial ctDNA monitoring: overall survival by maxMMPM at C3D1; format: in vivo, human
Procedure: In this example, the patients' samples from the same Phase 3 trial as described in Example 1 were collected processed an analyzed essentially as described in Example 1. However, the samples were collected serially during the administration of therapy.
Multiple metrics of circulating tumor DNA (ctDNA) were assessed for association with OS.
Plasma from 94 patients taken at baseline and at subsequent cycles of therapy every three weeks (C2D1, C3D1, and C4D1) were analyzed retrospectively for ctDNA with the AVENIO ctDNA Surveillance Kit (Roche Sequencing Solutions, Pleasanton, Calif.) Mutations detected in matched PBMC DNA were excluded in correlation analyses with clinical outcomes. ctDNA was measured by allele frequency (AF) or mutant molecules per milliliter (MMPM), and summarized across multiple mutations within a sample by median, mean or maximum. Concordance between these per-sample metrics and PFS/OS were assessed using C index, which is equivalent to AUC under a Receiver Operating Characteristic (ROC) curve.
Specifically, samples were collected and assessed at drug administration cycle 1, 2, or 3 or 4 taken in each case, on day 1 (C1D1, C2D1, C3D1, and C4D1). […] Using the max MMPM at C3D1, the patients were dichotomized at a median for the entire cohort of 8.75 maximal MMPM. […] In the docetaxel arm, the 1-year survival rate among MMPM low vs MMPM high patients was 0.7 vs 0.07. Because mutation metrics obtained from overall ctDNA levels were associated with OS in metastatic NSCLC, ctDNA is a promising non-invasive blood based biomarker in the metastatic setting of NSCLC.

[4] = number of detected variants <75th percentile (<12)
[5] = number of detected variants <Median (<6.5)
[6] = number of detected variants ≥75th percentile (≥12)
[7] = number of detected variants ≥Median (≥6.5)
[8] = patients with MaxAF <Median (<44.58) at baseline
[9] = patients with MaxAF ≥Median (≥44.58) at baseline
[10] = patients with number of detected variants <75th percentile (<12) at baseline
[11] = patients with number of detected variants <Median (<6.5) at baseline
[12] = patients with number of detected variants ≥75th percentile (≥12) at baseline
[13] = patients with number of detected variants ≥Median (≥6.5) at baseline
[14] = MMPM high patients (max MMPM at C3D1, dichotomized at median 8.75)
[15] = MMPM low patients (max MMPM at C3D1, dichotomized at median 8.75)

atezolizumab
OS benefit, atezolizumab vs docetaxel [1]: clinically significant OS benefit
Hazard Ratio (HR), progression free survival, Atezolizumab vs docetaxel ([2]; MaxAF <Median (<44.58)): 1.45
Hazard Ratio (HR), progression free survival, Atezolizumab vs docetaxel ([2]; MaxAF ≥Median (≥44.58)): 0.56
Events/Total number of patients ([2]; MaxAF <Median (<44.58)): 22/23
Events/Total number of patients ([2]; MaxAF ≥Median (≥44.58)): 24/28
Events/Total number of patients [2, 4]: 35/38
Events/Total number of patients [2, 5]: 23/24
Events/Total number of patients [2, 6]: 11/13
Events/Total number of patients [2, 7]: 23/27
Hazard Ratio (HR), progression free survival, Atezolizumab vs docetaxel [2, 4]: 1.05
Hazard Ratio (HR), progression free survival, Atezolizumab vs docetaxel [2, 5]: 1.12
Hazard Ratio (HR), progression free survival, Atezolizumab vs docetaxel [2, 6]: 0.49
Hazard Ratio (HR), progression free survival, Atezolizumab vs docetaxel [2, 7]: 0.67
Median Progression Free Survival [2, 8]: 2.6
Median Progression Free Survival [2, 9]: 4.99
Median Progression Free Survival [2, 10]: 2.71
Median Progression Free Survival [2, 11]: 2.74
Median Progression Free Survival [2, 12]: 5.85
Median Progression Free Survival [2, 13]: 2.79
1-year survival rate (OS) [3, 14]: 0.43
1-year survival rate (OS) [3, 15]: 0.81

CC(=O)O[C@@]12CO[C@@H]1C[C@H](O)[C@@]1(C)C(=O)[C@H](O)C3=C(C)[C@@H](OC(=O)[C@H](O)[C@@H](NC(=O)OC(C)(C)C)c4ccccc4)C[C@@](O)([C@@H](OC(=O)c4ccccc4)[C@H]21)C3(C)C [Docetaxel, docetaxel]
Events/Total number of patients ([2]; MaxAF <Median (<44.58)): 27/28
Events/Total number of patients ([2]; MaxAF ≥Median (≥44.58)): 23/23
Events/Total number of patients [2, 4]: 37/37
Events/Total number of patients [2, 5]: 27/27
Events/Total number of patients [2, 6]: 13/14
Events/Total number of patients [2, 7]: 23/24
Median Progression Free Survival [2, 8]: 4.09
Median Progression Free Survival [2, 9]: 3.09
Median Progression Free Survival [2, 10]: 4.07
Median Progression Free Survival [2, 11]: 3.98
Median Progression Free Survival [2, 12]: 2.41
Median Progression Free Survival [2, 13]: 2.94
1-year survival rate (OS) [3, 14]: 0.07
1-year survival rate (OS) [3, 15]: 0.7
